For one assay, the system named is DU-145. Nature of the assay: Antiproliferative activity against human DU145 cells measured after 72 hrs by EZ-Cytox assay. The class given is functional, cell-based. Particulars: DU-145, 72 h.
The next assay relates to HeLa. In words: Antiproliferative activity against human HeLa cells measured after 72 hrs by EZ-Cytox assay. The format is functional, cell-based.
For another assay, the system named is HCT-15. Nature of the assay: Antiproliferative activity against human HCT15 cells measured after 72 hrs by EZ-Cytox assay. The class given is functional, cell-based. The conditions noted are these: HCT-15, 72 h.
The next assay has as its system T47D. In words: Antiproliferative activity against human T47D cells measured after 72 hrs by EZ-Cytox assay. The format is functional, cell-based.
For assay [1], the target named is T1, DNA topoisomerase 1 (Homo sapiens) (UniProt P11387).
T1 sequence (whole entry): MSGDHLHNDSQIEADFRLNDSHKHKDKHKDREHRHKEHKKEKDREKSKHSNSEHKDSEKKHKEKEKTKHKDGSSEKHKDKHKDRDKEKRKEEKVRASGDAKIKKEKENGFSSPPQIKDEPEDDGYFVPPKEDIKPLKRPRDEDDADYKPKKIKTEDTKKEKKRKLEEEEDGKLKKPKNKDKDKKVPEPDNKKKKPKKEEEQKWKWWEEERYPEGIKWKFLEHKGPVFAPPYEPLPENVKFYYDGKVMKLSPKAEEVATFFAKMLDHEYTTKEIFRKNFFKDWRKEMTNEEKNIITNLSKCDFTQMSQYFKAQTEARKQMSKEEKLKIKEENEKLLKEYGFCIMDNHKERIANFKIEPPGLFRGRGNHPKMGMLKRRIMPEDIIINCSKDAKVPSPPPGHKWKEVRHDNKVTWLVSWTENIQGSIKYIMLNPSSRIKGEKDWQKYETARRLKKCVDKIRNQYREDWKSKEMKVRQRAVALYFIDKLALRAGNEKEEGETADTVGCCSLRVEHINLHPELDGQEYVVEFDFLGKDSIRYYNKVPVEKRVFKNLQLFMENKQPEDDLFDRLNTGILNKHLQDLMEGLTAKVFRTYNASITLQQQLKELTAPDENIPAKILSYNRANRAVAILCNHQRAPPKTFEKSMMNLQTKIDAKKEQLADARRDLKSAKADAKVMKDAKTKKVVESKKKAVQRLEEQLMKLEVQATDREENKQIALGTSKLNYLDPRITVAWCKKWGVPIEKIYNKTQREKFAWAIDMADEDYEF
In words: Inhibition of recombinant human topoisomerase 1-mediated relaxation of supercoiled pBR322 DNA at 100 uM measured after 30 mins by ethidium bromide staining based agarose gel electrophoresis relative to control.

The target in assay [2] is DNA topoisomerase 2-alpha (Homo sapiens) (UniProt P11388). Nature of the assay: Inhibition of recombinant human topoisomerase 2alpha-mediated relaxation of supercoiled pBR322 DNA at 100 uM measured after 30 mins by ethidium bromide staining based agarose gel electrophoresis relative to control.
Sequence of DNA topoisomerase 2-alpha (Homo sapiens) (P11388 whole entry): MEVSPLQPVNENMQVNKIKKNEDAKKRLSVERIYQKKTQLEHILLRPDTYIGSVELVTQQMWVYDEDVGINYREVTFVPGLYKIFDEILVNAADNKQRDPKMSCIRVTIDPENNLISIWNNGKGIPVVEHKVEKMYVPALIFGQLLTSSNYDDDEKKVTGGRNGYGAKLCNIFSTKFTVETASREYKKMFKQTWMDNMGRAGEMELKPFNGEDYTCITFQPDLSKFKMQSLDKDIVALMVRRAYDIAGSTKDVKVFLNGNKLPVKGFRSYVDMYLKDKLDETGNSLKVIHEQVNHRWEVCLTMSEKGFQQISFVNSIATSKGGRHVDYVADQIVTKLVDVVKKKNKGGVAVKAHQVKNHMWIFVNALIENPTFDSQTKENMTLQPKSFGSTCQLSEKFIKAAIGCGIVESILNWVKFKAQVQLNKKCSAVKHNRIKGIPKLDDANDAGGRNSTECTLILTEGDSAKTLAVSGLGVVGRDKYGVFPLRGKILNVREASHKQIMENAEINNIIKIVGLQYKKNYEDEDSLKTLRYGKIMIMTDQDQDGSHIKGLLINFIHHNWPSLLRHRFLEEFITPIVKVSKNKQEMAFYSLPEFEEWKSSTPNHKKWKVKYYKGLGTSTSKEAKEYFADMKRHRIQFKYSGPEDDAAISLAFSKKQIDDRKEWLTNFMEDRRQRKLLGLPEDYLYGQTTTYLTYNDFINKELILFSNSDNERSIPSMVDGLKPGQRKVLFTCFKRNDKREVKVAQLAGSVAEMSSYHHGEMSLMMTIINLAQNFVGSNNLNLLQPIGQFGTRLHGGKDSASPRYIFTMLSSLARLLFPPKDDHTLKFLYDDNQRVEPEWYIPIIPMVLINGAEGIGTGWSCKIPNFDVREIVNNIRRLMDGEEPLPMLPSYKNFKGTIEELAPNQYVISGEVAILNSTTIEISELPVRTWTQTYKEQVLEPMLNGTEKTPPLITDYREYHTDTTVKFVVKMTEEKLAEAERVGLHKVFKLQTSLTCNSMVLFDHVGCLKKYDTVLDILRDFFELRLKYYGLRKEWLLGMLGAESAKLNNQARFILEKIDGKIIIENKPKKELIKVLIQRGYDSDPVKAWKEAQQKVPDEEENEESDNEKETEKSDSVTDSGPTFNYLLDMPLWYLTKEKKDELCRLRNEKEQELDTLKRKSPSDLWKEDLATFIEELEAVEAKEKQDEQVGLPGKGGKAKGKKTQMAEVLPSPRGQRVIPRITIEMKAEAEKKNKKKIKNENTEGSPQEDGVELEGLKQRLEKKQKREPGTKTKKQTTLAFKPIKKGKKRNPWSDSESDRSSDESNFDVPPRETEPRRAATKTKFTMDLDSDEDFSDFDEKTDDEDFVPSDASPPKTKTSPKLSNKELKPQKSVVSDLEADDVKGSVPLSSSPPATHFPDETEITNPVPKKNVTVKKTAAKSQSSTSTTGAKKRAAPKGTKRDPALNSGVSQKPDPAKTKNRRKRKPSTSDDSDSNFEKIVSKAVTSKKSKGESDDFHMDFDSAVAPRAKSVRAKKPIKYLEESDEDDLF

SMILES strings stand for the structures. A value given as a limit tells only on which side of the number the result lay.

As usually defined, the IC50 is the concentration that gives 50% inhibition. Lower therefore signals higher potency. The inhibition is the relative decrease from the control value, in per cent.

For `Oc1ccc(-c2cc(-c3cccc(F)c3)nc3c2Cc2c(O)cccc2-3)cc1`, the 50% inhibitory concentration (IC50) came out at 2.04 µM in the assay with DU-145, 7.3 µM in the assay with HeLa, 4.75 µM with HCT-15 and 0.57 µM in the assay on T47D. Also, the inhibition was determined as 8.6% in assay [1] and 0.7% in assay [2].

Consider `Oc1ccccc1-c1cc(-c2ccccc2)c2c(n1)-c1c(O)cccc1C2`, for which the IC50 with DU-145 is 9.61 µM; in the assay on HeLa it was over 50 µM; with HCT-15 it was over 50 µM; in the assay on T47D, over 50 µM. Moreover, the figures for the inhibition in assay [1] and in assay [2] were 1% and 1.2%, respectively.

For the compound `Oc1ccc(-c2cc(-c3ccccc3C(F)(F)F)nc3c2Cc2cccc(O)c2-3)cc1`, the IC50 in the assay with DU-145 was over 50 µM; in the assay on HeLa it was over 50 µM; with HCT-15, over 50 µM; with T47D, 1.44 µM. In addition, the inhibition was 3% in assay [1] and 2.9% in assay [2].

As to `Oc1ccc(-c2cc(-c3ccccc3)nc3c2Cc2cccc(O)c2-3)cc1`, the IC50 is 4.13 µM in the assay with DU-145, over 50 µM in the assay with HeLa, over 50 µM in the assay on HCT-15 and over 50 µM in the assay with T47D. The inhibition in assay [1] was 10.2%; in assay [2] it was 4%.

As for `Oc1cccc(-c2cc(-c3cccc(F)c3)nc3c2Cc2cccc(O)c2-3)c1`, the IC50 is 0.94 µM in the assay with DU-145, 15 µM with HeLa, over 50 µM in the assay on HCT-15 and 1.16 µM with T47D. The inhibition in assay [1] is 14%; in assay [2] it was 17.8%.

Take `Oc1cccc(-c2cc(-c3ccccc3)c3c(n2)-c2cc(O)ccc2C3)c1`: the IC50 is 0.42 µM in the assay with DU-145, over 50 µM in the assay on HeLa, over 50 µM in the assay on HCT-15 and over 50 µM with T47D. Moreover, the inhibition in assay [1] worked out at 0%; in assay [2], 3.5%.

With `Oc1ccc(-c2cc(-c3cccc(Cl)c3)nc3c2Cc2cccc(O)c2-3)cc1`, the IC50 with DU-145 was 0.03 µM; in the assay on HeLa, 6.23 µM; in the assay on HCT-15, 1.3 µM; with T47D, 0.83 µM. Also, the values for the inhibition in assay [1] and in assay [2] were 0% and 24.4%, respectively.

Regarding `Oc1ccccc1-c1cc(-c2cccc(F)c2)nc2c1Cc1cccc(O)c1-2`, the IC50 with DU-145 amounted to 9.97 µM; with HeLa, 7.9 µM; in the assay on HCT-15, 5.03 µM; with T47D, 0.74 µM. Besides, the values for the inhibition in assay [1] and in assay [2] were 0% and 8.4%, respectively.

Regarding `Oc1ccc(-c2cc(-c3ccccc3F)nc3c2Cc2cc(O)ccc2-3)cc1`, the IC50 worked out at 1.26 µM in the assay on DU-145, 4.84 µM in the assay with HeLa, 3.01 µM in the assay on HCT-15 and 1.39 µM with T47D. Moreover, the inhibition is 12.2% in assay [1] and 10.6% in assay [2].

As to `Oc1ccc(-c2cc(-c3ccccc3)c3c(n2)-c2c(O)cccc2C3)cc1`, the half-maximal inhibitory concentration (IC50) in the assay on DU-145 is 0.66 µM; with HeLa, 2.06 µM; in the assay on HCT-15, over 50 µM; in the assay on T47D, 11.6 µM. Besides, the inhibition in assay [1] stood at 1.1%; in assay [2], 3.7%.

With `Oc1ccc(-c2cc(-c3ccc(Cl)cc3)nc3c2Cc2cccc(O)c2-3)cc1`, the IC50 in the assay with DU-145 is 2.8 µM; in the assay with HeLa it was over 50 µM; in the assay on HCT-15, over 50 µM; in the assay on T47D, over 50 µM. Also, the inhibition came out at 0.2% in assay [1] and 26.2% in assay [2].

Consider `Oc1ccccc1-c1cc(-c2ccccc2F)nc2c1Cc1cccc(O)c1-2`, for which the IC50 in the assay with DU-145 came to 9.9 µM; in the assay on HeLa it was 7.63 µM; with HCT-15, 3.76 µM; in the assay on T47D, 4.56 µM. Besides, the inhibition was found to be 0% in assay [1] and 0.6% in assay [2].

On to `Oc1ccc(-c2cc(-c3ccccc3)nc3c2Cc2cc(O)ccc2-3)cc1`, for which the IC50 in the assay with DU-145 is 2.48 µM; with HeLa, 2.75 µM; in the assay with HCT-15, over 50 µM; in the assay with T47D, 3.55 µM. The inhibition in assay [1] came out at 11.1%; in assay [2], 2.5%.
